Reference: patent publication US20260125370A1, “SULFOXIMINE COMPOUNDS AS HISTONE DEACETYLASE 6 INHIBITOR, AND PHARMACEUTICAL COMPOSITION COMPRISING THE SAME” (CHONG KUN DANG PHARMACEUTICAL CORP., priority 2022, published 2026)

How the values were obtained:
human recombinant HDAC6 = target: T1, human recombinant HDAC6 (Homo sapiens, UniProt Q9UBN7); assay: HDAC6 enzyme activity inhibition (fluorimetric, in vitro); format: biochemical; conditions: samples at 0.1, 1, 10, 100 and 1000 nM
T1 construct: purchased Calbiochem 382180
T1 sequence (Q9UBN7 1-1215): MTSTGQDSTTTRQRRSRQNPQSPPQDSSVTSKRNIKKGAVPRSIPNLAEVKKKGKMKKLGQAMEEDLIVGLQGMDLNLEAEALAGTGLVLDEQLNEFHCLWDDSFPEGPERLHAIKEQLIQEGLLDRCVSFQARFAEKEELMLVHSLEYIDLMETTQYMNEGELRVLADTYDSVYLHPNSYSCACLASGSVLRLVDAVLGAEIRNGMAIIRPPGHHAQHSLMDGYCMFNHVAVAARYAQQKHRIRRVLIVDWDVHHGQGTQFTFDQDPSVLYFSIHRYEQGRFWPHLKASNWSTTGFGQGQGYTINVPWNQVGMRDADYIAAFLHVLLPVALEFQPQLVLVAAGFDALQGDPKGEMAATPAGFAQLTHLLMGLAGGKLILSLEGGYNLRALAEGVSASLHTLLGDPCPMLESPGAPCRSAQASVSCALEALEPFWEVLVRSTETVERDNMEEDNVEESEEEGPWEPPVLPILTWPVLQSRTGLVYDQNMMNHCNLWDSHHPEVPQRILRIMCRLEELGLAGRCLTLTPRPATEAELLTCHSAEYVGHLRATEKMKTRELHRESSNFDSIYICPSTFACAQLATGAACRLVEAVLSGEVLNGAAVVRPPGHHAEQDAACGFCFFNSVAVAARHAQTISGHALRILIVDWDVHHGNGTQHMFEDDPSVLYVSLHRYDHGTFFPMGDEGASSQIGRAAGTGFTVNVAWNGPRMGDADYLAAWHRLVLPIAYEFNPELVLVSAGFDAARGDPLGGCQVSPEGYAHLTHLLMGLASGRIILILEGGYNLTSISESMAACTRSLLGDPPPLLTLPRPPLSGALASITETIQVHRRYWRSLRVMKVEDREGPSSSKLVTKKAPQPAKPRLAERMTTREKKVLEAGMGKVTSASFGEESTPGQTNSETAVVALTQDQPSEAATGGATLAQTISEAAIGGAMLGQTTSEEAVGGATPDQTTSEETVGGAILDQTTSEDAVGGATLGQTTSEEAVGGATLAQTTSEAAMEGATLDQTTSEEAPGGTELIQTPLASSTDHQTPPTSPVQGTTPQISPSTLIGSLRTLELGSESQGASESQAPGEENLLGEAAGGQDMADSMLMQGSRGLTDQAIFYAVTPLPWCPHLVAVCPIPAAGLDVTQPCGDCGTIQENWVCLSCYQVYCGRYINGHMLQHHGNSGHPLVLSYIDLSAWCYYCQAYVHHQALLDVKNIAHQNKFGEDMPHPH
Procedure, shortened: (§1)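 Recombinant human HDAC1 or HDAC6 (0.3 μg) with Fluor de Lys-SIRT1 substrate at […], 60 min at 37 °C, then developer 30 min; fluorescence Ex 360/Em 460. Compounds at 100–10000 nM for HDAC1 and 0.1–1000 nM for HDAC6; IC50 calculated.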

human recombinant HDAC1 = target: T2, human recombinant HDAC1 (Homo sapiens, UniProt Q13547); assay: HDAC1 enzyme activity inhibition (HDAC1 Fluorimetric Drug Discovery Assay Kit, in vitro); format: biochemical; conditions: samples at 100, 1000 and 10000 nM
T2 construct: purchased Enzolifesciences BML-SE456
Procedure, shortened: as §1

T2 sequence (Q13547 whole entry): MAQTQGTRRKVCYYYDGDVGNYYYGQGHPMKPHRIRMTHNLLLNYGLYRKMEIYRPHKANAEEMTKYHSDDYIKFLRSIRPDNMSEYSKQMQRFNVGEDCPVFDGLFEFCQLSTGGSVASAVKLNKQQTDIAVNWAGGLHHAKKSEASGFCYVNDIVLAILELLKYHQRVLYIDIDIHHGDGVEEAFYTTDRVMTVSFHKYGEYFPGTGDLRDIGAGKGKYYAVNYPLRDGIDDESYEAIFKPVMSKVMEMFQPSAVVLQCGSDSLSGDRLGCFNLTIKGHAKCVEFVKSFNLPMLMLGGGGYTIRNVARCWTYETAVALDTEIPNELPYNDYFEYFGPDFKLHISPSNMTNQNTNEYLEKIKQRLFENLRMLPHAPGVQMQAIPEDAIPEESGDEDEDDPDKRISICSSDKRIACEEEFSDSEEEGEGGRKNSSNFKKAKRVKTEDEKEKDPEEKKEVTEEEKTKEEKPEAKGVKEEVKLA

## COc1ccccc1N(Cc1ccc(-c2nnc(C(F)F)o2)cc1F)C(=O)N1CCS(=N)(=O)CC1 [Compound 25, N-(4-(5-(difluoromethyl)-1,3,4-oxadiazol-2-y1)-2-fluorobenzyl)-1-imino-N-(2-methoxyphenyl)thiomorpholin-4-carboxamide 1-oxide]
Human recombinant HDAC6
  IC50: 141 nM
Human recombinant HDAC1
  IC50: > 10000 nM

## N=S1(=O)CCN(C(=O)N(Cc2ncc(-c3nnc(C(F)F)o3)cc2F)c2ccc(Cl)cc2Cl)CC1 [Compound 50, N-(2,4-dichlorophenyl)-N-((5-(5-(difluoromethyl)-1,3,4-oxadiazol-2-y1)-3-fluoropyridin-2-yl)methyl)-1-iminothiomorpholin-4-carboxamide 1-oxide]
Human recombinant HDAC6
  IC50: 66.4 nM
Human recombinant HDAC1
  IC50: > 10000 nM

## N=S1(=O)CCN(C(=O)N(Cc2ccc(-c3nnc(C(F)F)o3)cc2F)c2cccnc2)CC1 [Compound 66, N-[[4-[5-(difluoromethyl)-1,3,4-oxadiazol-2-yl]-2-fluoro-phenyl]methyl]-1-imino-1-oxo-N-(3-pyridyl)-1,4-thiazinan-4-carboxamide]
Human recombinant HDAC6
  IC50: 90.2 nM
Human recombinant HDAC1
  IC50: > 10000 nM

## N=S1(=O)CCN(c2c(N(Cc3ncc(-c4nnc(C(F)F)o4)cc3F)c3ccccc3)c(=O)c2=O)CC1 [Compound 61, 3-(((5-(5-(difluoromethyl)-1,3,4-oxadiazol-2-yl)-3-fluoropyridin-2-yl)methyl)(phenyl)amino)-4-(1-imino-1-oxidothiomorpholino)cyclobut-3-en-1,2-dione]
Human recombinant HDAC6
  IC50: 29.8 nM
Human recombinant HDAC1
  IC50: > 10000 nM

## N=S1(=O)CCN(C(=O)N(Cc2ccc(-c3nnc(C(F)F)o3)cn2)c2ccccc2F)CC1 [Compound 57]
Human recombinant HDAC6
  IC50: 130 nM
Human recombinant HDAC1
  IC50: > 10000 nM

## N=S1(=O)CCN(C(=O)N(Cc2ccccc2)Cc2ccc(-c3nnc(C(F)F)o3)cc2F)CC1 [Compound 24, N-benzyl-N-(4-(5-(difluoromethyl)-1,3,4-oxadiazol-2-y1)-2-fluorobenzyl)-1-iminothiomorpholin-4-carboxamide 1-oxide]
Human recombinant HDAC6
  IC50: 1010 nM
Human recombinant HDAC1
  IC50: > 10000 nM

## N=S1(=O)CCN(C(=O)N(Cc2ccc(-c3nnc(C(F)F)o3)cc2F)c2ccccc2)CC1 [Compound 1, N-(4-(5-(difluoromethyl)-1,3,4-oxadiazol-2-yl)-2-fluorobenzyl)-1-imino-N-phenylthiomorpholin-4-carboxamide 1-oxide]
Human recombinant HDAC6
  IC50: 49.4 nM
Human recombinant HDAC1
  IC50: > 10000 nM

## N=S1(=O)CCN(C(=O)N(Cc2ccc(-c3nnc(C(F)F)o3)cc2F)c2ccc(Br)cc2)CC1 [Compound 20, N-(4-bromophenyl)-N-(4-(5-(difluoromethyl)-1,3,4-oxadiazol-2-yl)-2-fluorobenzyl)-1-iminothiomorpholin-4-carboxamide 1-oxide]
Human recombinant HDAC6
  IC50: 76.7 nM
Human recombinant HDAC1
  IC50: > 10000 nM

## N=S1(=O)CCN(C(=O)N(Cc2ccc(-c3nnc(C(F)F)o3)cc2F)c2cccc(-c3cncs3)c2)CC1 [Compound 43, N-(4-(5-(difluoromethyl)-1,3,4-oxadiazol-2-yl)-2-fluorobenzyl)-1-imino-N-(3-(thiazole-5-yl)phenyl)thiomorpholin-4-carboxamide 1-oxide]
Human recombinant HDAC6
  IC50: 88.9 nM
Human recombinant HDAC1
  IC50: > 10000 nM

## O=C(N=S1(=O)CCN(C(=O)N(Cc2ccc(-c3nnc(C(F)F)o3)cn2)c2ccccc2)CC1)OCc1ccccc1 [Compound 5, Benzyl (4-(((5-(5-(difluoromethyl)-1,3,4-oxadiazol-2-yl)pyridin-2-yl)methyl)(phenyl)carbamoyl)-1-oxidothiomorpholin-1-ylidene)carbamate]
Human recombinant HDAC6
  IC50: 91.4 nM
Human recombinant HDAC1
  IC50: > 10000 nM

## N=S1(=O)CC(N2C[C@@H]3C[C@H]2CN3c2c(N(Cc3ccc(-c4nnc(C(F)F)o4)cc3F)c3ccccc3)c(=O)c2=O)C1 (stereo partly drawn) [Compound 89, 3-[N-[[4-[5-(difluoromethyl)-1,3,4-oxadiazol-2-yl]-2-fluoro-phenyl]methyl]anilino]-4-[(1S,4S)-5-(1-imino-1-oxo-thiethan-3-yl)-2,5-diazabicyclo[2.2.1]heptan-2-yl]cyclobut-3-en-1,2-dione]
Human recombinant HDAC6
  IC50: 34.1 nM
Human recombinant HDAC1
  IC50: > 10000 nM

## CC1CN(C(=O)N(Cc2ccc(-c3nnc(C(F)F)o3)cn2)c2ccccc2)CCS1(=N)=O (stereo not drawn) [Compound 85, N-[[5-[5-(difluoromethyl)-1,3,4-oxadiazol-2-yl]-2-pyridyl]methyl]-1-imino-2-methyl-1-oxo-N-phenyl-1,4-thiazinan-4-carboxamide]
Human recombinant HDAC6
  IC50: 74.6 nM
Human recombinant HDAC1
  IC50: > 10000 nM
